Reference: patent publication US20250213575A1, “8-HETEROCYCLIC-3-(PHENYLSULFONYL)-[1,2,3]TRIAZOLO[1,5A]QUINAZOLIN-5(4H)-ONE DERIVATIVES AS ANTI-BACTERIALS” (priority 2022, published 2025)
Marks after values point to notes of the source that are not given here.

Target: AgrA (Staphylococcus aureus, UniProt P0A0I7)
Assay: cell-based
Parameters: species or system S. aureus USA300 strain UAMS-1625
Conditions: for Ratio IC50 (in presence of HSA)/IC50 (in absence of HSA): 40 mg/mL HSA vs without HSA; for Ratio (cells marked *): calculated based on activity in presence of 50% of human serum
[1] = LB medium supplemented with 40 mg/mL human serum albumin
[2] = IC50 at 40 mg/mL HSA, LB medium supplemented with 40 mg/mL human serum albumin
[3] = IC50 without HSA, LB medium, without HSA
[4] = concentration inhibiting the expression of lacZ, in the absence of HSA or HS
[5] = IC50 at 40 mg/mL HSA (cells marked *), marked *: activity in presence of 50% of human serum, not determined in 40 mg/mL HSA

AgrA, sequence (P0A0I7 whole entry): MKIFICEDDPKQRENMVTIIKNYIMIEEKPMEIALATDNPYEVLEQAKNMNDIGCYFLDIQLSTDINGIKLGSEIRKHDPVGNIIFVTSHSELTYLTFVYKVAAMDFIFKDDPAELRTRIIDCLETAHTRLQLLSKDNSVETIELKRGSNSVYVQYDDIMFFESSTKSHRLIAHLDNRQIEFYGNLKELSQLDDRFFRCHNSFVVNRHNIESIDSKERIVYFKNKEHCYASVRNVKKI

| Molecule | Ratio IC50 (in presence of HSA)/IC50 (in absence of HSA) | IC50 at 40 mg/mL HSA [1] | IC50 without HSA (LB medium, without HSA) | IC50 [2] [µM] | IC50 [3] [µM] | IC50 [4] [µM] | activity in the presence of HSA (or HS), inactive at highest concentration tested (in the presence of HSA (or HS)) [µg/mL] | IC50 [5] [µM] | Ratio (cells marked *) |
| --- | --- | --- | --- | --- | --- | --- | --- | --- | --- |
| 3-(2,4-dimethylbenzenesulfonyl)-8-(4-methanesulfonylpiperazin-1-yl)-4H,5H-[1,2,3]triazolo[1,5-a]quinazolin-5-one [Compound 61] | ++ (ratio ≤ 125) | ++ (10 μg/mL < IC50 ≤ 50 μg/mL) | +++ (IC50 ≤ 1 μg/mL) |  |  |  |  |  |  |
| 3-(2,4-dimethylbenzenesulfonyl)-8-(piperazin-1-yl)-4H,5H-[1,2,3]triazolo[1,5-a]quinazolin-5-one [Compound 23] | +++ (ratio ≤ 25) | ++ (10 μg/mL < IC50 ≤ 50 μg/mL) | +++ (IC50 ≤ 1 μg/mL) |  |  |  |  |  |  |
| 3-(2,4-dimethylbenzenesulfonyl)-8-{9-methyl-2,9-diazaspiro[5.5]undecan-2-yl}-1H,5H-[1,2,3]triazolo[1,5-a]quinazolin-5-one [Compound 5] | +++ (ratio ≤ 25) | ++ (10 μg/mL < IC50 ≤ 50 μg/mL) | +++ (IC50 ≤ 1 μg/mL) |  |  |  |  |  |  |
| 4-[3-(2,4-dimethylbenzenesulfonyl)-5-oxo-4H,5H-[1,2,3]triazolo[1,5-a]quinazolin-8-yl]piperazine-1-sulfonamide [Compound 62] | ++ (ratio ≤ 125) | ++ (10 μg/mL < IC50 ≤ 50 μg/mL) | +++ (IC50 ≤ 1 μg/mL) |  |  |  |  |  |  |
| Cc1ccc(S(=O)(=O)c2nnn3c2[nH]c(=O)c2ccc(N4C[C@H](C)NC[C@H]4C)cc23)c(C)c1 (racemic) [Compound 28, rac-3-(2,4-dimethylbenzenesulfonyl)-8-[(2R,5S)-2,5-dimethylpiperazin-1-yl]-4H,5H-[1,2,3]triazolo[1,5-a]quinazolin-5-one] | +++ (ratio ≤ 25) |  |  | < 21.4 | < 2.14 |  |  |  |  |
| Cc1ccc(S(=O)(=O)c2nnn3c2[nH]c(=O)c2ccc(N4CCC4)cc23)c(C)c1 [45 (WO 2020/109350), reference compound] | + (ratio > 125) |  |  | > 122 | < 2.44 | < 2.44 | > 128 |  |  |
| Cc1ccc(S(=O)(=O)c2nnn3c2[nH]c(=O)c2cc(O)ccc23)c(C)c1 [46 (WO 2020/109350), reference compound] |  |  |  |  | < 2.7 | < 2.7 |  | > 135 | +* (ratio > 125) |
| COCCOc1cc2c(cc1O)c(=O)[nH]c1c(S(=O)(=O)c3ccc(C)cc3C)nnn12 [58 (WO 2020/109350), reference compound] |  |  |  |  | < 2.25 | < 2.25 |  | > 112 | +* (ratio > 125) |
| Cc1ccc(S(=O)(=O)c2nnn3c2[nH]c(=O)c2cc(O)c(N4CCN(C)CC4)cc23)c(C)c1 [Compound 1, 3-(2,4-dimethylbenzenesulfonyl)-7-hydroxy-8-(4-methylpiperazin-1-yl)-4H,5H-[1,2,3]triazolo[1,5-a]quinazolin-5-one] | +++ (ratio ≤ 25) |  |  | < 21.3 | < 2.13 |  |  |  |  |
| Cc1ccc(S(=O)(=O)c2nnn3c2[nH]c(=O)c2cc(O)c(N4CC5(CN(C)C5)C4)cc23)c(C)c1 [Compound 2, 3-(2,4-dimethylbenzenesulfonyl)-7-hydroxy-8-{6-methyl-2,6-diazaspiro[3.3]heptan-2-yl}-4H,5H-[1,2,3]triazolo[1,5-a]quinazolin-5-one] | +++ (ratio ≤ 25) |  |  | < 20.8 | < 2.08 |  |  |  |  |
| Cc1ccc(S(=O)(=O)c2n[nH]n3c2nc(=O)c2ccc(N4CCC5(CCN(C)CC5)C4)cc23)c(C)c1 [Compound 3, 3-(2,4-dimethylbenzenesulfonyl)-8-{8-methyl-2,8-diazaspiro[4.5]decan-2-yl}-1H,5H-[1,2,3]triazolo[1,5-a]quinazolin-5-one] | +++ (ratio ≤ 25) |  |  | < 19.7 | < 1.97 |  |  |  |  |
| Cc1ccc(S(=O)(=O)c2n[nH]n3c2nc(=O)c2ccc(N4CCC5(CCCN(C)C5)CC4)cc23)c(C)c1 [Compound 4, 3-(2,4-dimethylbenzenesulfonyl)-8-{2-methyl-2,9-diazaspiro[5.5]undecan-9-yl}-1H,5H-[1,2,3]triazolo[1,5-a]quinazolin-5-one] | +++ (ratio ≤ 25) |  |  | 19.2 to 96 | 1.92 to 9.6 |  |  |  |  |
| Cc1ccc(S(=O)(=O)c2n[nH]n3c2nc(=O)c2ccc(N4CCC5(CCN(C)CC5)CC4)cc23)c(C)c1 [Compound 6, 3-(2,4-dimethylbenzenesulfonyl)-8-{9-methyl-3,9-diazaspiro[5.5]undecan-3-yl}-1H,5H-[1,2,3]triazolo[1,5-a]quinazolin-5-one] | +++ (ratio ≤ 25) |  |  | 19.2 to 96 | 1.92 to 9.6 |  |  |  |  |
| Cc1ccc(S(=O)(=O)c2nnn3c2[nH]c(=O)c2ccc(N4CCC5(CNCCO5)C4)cc23)c(C)c1 (stereo not shown) [Compound 7, 3-(2,4-dimethylbenzenesulfonyl)-8-{6-oxa-2,9-diazaspiro[4.5]decan-2-yl}-4H,5H-[1,2,3]triazolo[1,5-a]quinazolin-5-one] | +++ (ratio ≤ 25) |  |  | < 20.2 | < 2.02 |  |  |  |  |
| Cc1ccc(S(=O)(=O)c2nnn3c2[nH]c(=O)c2ccc(N4CCC5(CN(C)CCO5)C4)cc23)c(C)c1 (stereo not shown) [Compound 8, 3-(2,4-dimethylbenzenesulfonyl)-8-{9-methyl-6-oxa-2,9-diazaspiro[4.5]decan-2-yl}-4H,5H-[1,2,3]triazolo[1,5-a]quinazolin-5-one] | +++ (ratio ≤ 25) |  |  | 19.7 to 98.3 | < 1.97 |  |  |  |  |
| Cc1ccc(S(=O)(=O)c2nnn3c2[nH]c(=O)c2ccc(N4CCOC5(CNC5)C4)cc23)c(C)c1 [Compound 9, 3-(2,4-dimethylbenzenesulfonyl)-8-{5-oxa-2,8-diazaspiro[3.5]nonan-8-yl}-4H,5H-[1,2,3]triazolo[1,5-a]quinazolin-5-one] | +++ (ratio ≤ 25) |  |  | 20.8 to 104 | 2.08 to 10.4 |  |  |  |  |
| Cc1ccc(S(=O)(=O)c2nnn3c2[nH]c(=O)c2ccc(N4CCOC5(CN(C)C5)C4)cc23)c(C)c1 [Compound 10, 3-(2,4-dimethylbenzenesulfonyl)-8-{2-methyl-5-oxa-2,8-diazaspiro[3.5]nonan-8-yl}-4H,5H-[1,2,3]triazolo[1,5-a]quinazolin-5-one] | +++ (ratio ≤ 25) |  |  | 20.2 to 101 | 2.02 to 10.1 |  |  |  |  |
| Cc1ccc(S(=O)(=O)c2nnn3c2[nH]c(=O)c2ccc(N4CCC45CN(C)C5)cc23)c(C)c1 [Compound 11, 3-(2,4-dimethylbenzenesulfonyl)-8-{6-methyl-1,6-diazaspiro[3.3]heptan-1-yl}-4H,5H-[1,2,3]triazolo[1,5-a]quinazolin-5-one] | +++ (ratio ≤ 25) |  |  | 21.5 to 108 | 2.15 to 10.8 |  |  |  |  |
| Cc1ccc(S(=O)(=O)c2nnn3c2[nH]c(=O)c2ccc(N4CC5(CCN5C)C4)cc23)c(C)c1 [Compound 12, 3-(2,4-dimethylbenzenesulfonyl)-8-{1-methyl-1,6-diazaspiro[3.3]heptan-6-yl}-4H,5H-[1,2,3]triazolo[1,5-a]quinazolin-5-one] | +++ (ratio ≤ 25) |  |  | 21.5 to 108 | < 2.15 |  |  |  |  |
